Source: PMC2870997 (Bioorganic & medicinal chemistry letters, 2009)

System: PKA reporter Reg-F[1]:Cat-F[2]
Experiment: Protein-fragment complementation
Format: cell-based
Conditions: β2AR-HEK293 cells

| SMILES | Effect on luminescence by β2AR activation (control) (1 μM, 30 min) | Effect of pretreatment on the response to 19 (control) (1 μM pretreatment) |
| --- | --- | --- |
| CC(C)NCC(O)c1ccc(O)c(O)c1 (centres unmarked) [Analogue 19, isoproterenol] | able to reduce luminescence | – |
| Cc1ccc(OCC(O)C(C)NC(C)C)c2c1CCC2 (centres unmarked) [Analogue 20, IC118551] | – | capable of preventing the effects of 19 |
